Counter-ions that a name gives are not always drawn. ± gives the standard deviation of the averaged measurements.
How the values were obtained:
Assay in all cases: relative viability vs DMSO control (72 h) (fraction); higher = more viable cells
HT1080 = tested on: HT1080
Method in brief: (§1)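 ATPLite readings, expressed as percent growth and averaged over up to triplicate wells, provided relative viability. Before reading, sarcoma cell lines seeded in 384-well plates to reach 80–90% confluence received 2.5 µl of serially diluted compound after 24 h, from source plates of 10 mM to 0.0002 mM. Plates were held 72 h at 37 °C, 5% CO2, with 0.1% DMSO as vehicle and a 5 µM positive control. The data were rescaled to 1 for full and 0 for none.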

KHOS-NP = tested on: KHOS-NP
Method in brief: as §1

RD = tested on: RD
Method in brief: as §1

VA-ES-BJ = tested on: VA-ES-BJ
Method in brief: as §1

RD-ES = tested on: RD-ES
Method in brief: as §1

Cn1cc(C2=C(c3cn(C4CCN(Cc5ccccn5)CC4)c4ccccc34)C(=O)NC2=O)c2ccccc21 [Enzastaurin]
relative viability
Conditions	HT1080	KHOS-NP	RD	RD-ES	VA-ES-BJ
0.00017 µM	1.14 ± 0.047	1.12 ± 0.033	1.08 ± 0.043	0.992 ± 0.013	1.08 ± 0.023
0.00051 µM	1.14 ± 0.024	1.13 ± 0.024	1.07 ± 0.04	0.997 ± 0.019	1.12 ± 0.019
0.00152 µM	1.11 ± 0.019	1.12 ± 0.014	1.08 ± 0.077	1 ± 0.022	1.11 ± 0.036
0.00457 µM	1.11 ± 0.073	1.131 ± 0.0071	1.1 ± 0.05	1.01 ± 0.027	1.09 ± 0.05
0.01372 µM	1.12 ± 0.055	1.14 ± 0.0042	1.1 ± 0.047	0.996 ± 0.036	1.07 ± 0.016
0.04115 µM	1.14 ± 0.036	1.12 ± 0.012	1.09 ± 0.036	1.01 ± 0.025	1.06 ± 0.046
0.1235 µM	1.14 ± 0.039	1.13 ± 0.017	1.1 ± 0.045	1.01 ± 0.03	1.06 ± 0.032
0.3704 µM	1.11 ± 0.022	1.12 ± 0.04	1.1 ± 0.076	0.981 ± 0.015	1.08 ± 0.041
1.111 µM	1.15 ± 0.033	1.11 ± 0.013	1.12 ± 0.036	1.02 ± 0.0073	1.11 ± 0.022
3.333 µM	1.37 ± 0.071	1.1 ± 0.024	1.1 ± 0.065	1.02 ± 0.033	1.19 ± 0.074
10 µM	1.365 ± 0.0037	1.1 ± 0.041	0.978 ± 0.028	1.04 ± 0.033	1.21 ± 0.088

C=C1C[C@@H]2CC[C@@]34C[C@H]5O[C@H]6[C@@H](O3)[C@H]3O[C@H](CC[C@@H]3O[C@H]6[C@H]5O4)CC(=O)C[C@@H]3[C@@H](OC)[C@@H](C[C@H](O)CN)O[C@H]3C[C@H]3O[C@@H](CC[C@@H]1O2)C[C@@H](C)C3=C [Eribulin Mesylate]
relative viability
Conditions	HT1080	KHOS-NP	RD	RD-ES	VA-ES-BJ
1.37 pM	1.1 ± 0.019	1.11 ± 0.015	1.069 ± 0.0092	1.04 ± 0.026	1.06 ± 0.018
4.1 pM	1.08 ± 0.066	1.119 ± 0.0095	1.041 ± 0.01	1.02 ± 0.054	1 ± 0.012
12.3 pM	1 ± 0.022	1.113 ± 0.0096	0.9352 ± 0.005	0.953 ± 0.075	0.901 ± 0.012
37 pM	0.959 ± 0.11	1.11 ± 0.026	0.683 ± 0.023	0.472 ± 0.094	0.72 ± 0.011
0.00011 µM	0.779 ± 0.3	1.1 ± 0.018	0.442 ± 0.02	0.0831 ± 0.012	0.474 ± 0.018
0.00033 µM	0.178 ± 0.02	1.05 ± 0.044	0.268 ± 0.016	0.0672 ± 0.0097	0.391 ± 0.012
0.001 µM	0.08945 ± 0.00049	0.922 ± 0.043	0.254 ± 0.014	0.041 ± 0.0083	0.437 ± 0.021
0.003 µM	0.06 ± 0.0063	0.669 ± 0.079	0.247 ± 0.0058	0.0209 ± 0.0047	0.359 ± 0.012
0.009 µM	0.0428 ± 0.0026	0.479 ± 0.032	0.273 ± 0.0059	0.0188 ± 0.0046	0.295 ± 0.0034
0.027 µM	0.043 ± 0.0026	0.438 ± 0.02	0.254 ± 0.015	0.0232 ± 0.00079	0.244 ± 0.012
460 fM	1.054 ± 0.0021	1.1 ± 0.035	1.07 ± 0.041	1.02 ± 0.0065	1.08 ± 0.023
